60 compounds from the METLIN SMRT retention time set (Domingo-Almenara et al. 2019) can be followed below.

The data set can be described thus: gradient 5% acetonitrile 3 min, to 50% in 2 min, to 85% in 15 min, held 3 min, 100 µL/min. The settings on record: column: Zorbax Extend-C18 2.1 x 50 mm; eluents: water / acetonitrile, 0.1% formic acid. The gist of the method:
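Mixtures of ~100 pure standards were chromatographed on a Zorbax Extend-C18 column (2.1 × 50 mm, 1.8 μm) at 100 μL/min using water and acetonitrile, each with 0.1% formic acid. Detection used a quadrupole time-of-flight mass spectrometer in positive and negative ionization mode, and data collection spanned 3 months. Retention time was obtained from adduct peaks picked computationally and each checked manually.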
As to `CCc1ccc(Oc2cc(N3CCC(C(=O)NCCCOC)CC3)ncn2)cc1`, the RP-LC retention time was determined as 578 s.

Regarding `COc1ccc(-c2nnc(-c3cc(S(=O)(=O)NCC(=O)O)ccc3Cl)o2)cc1`, the RP-LC retention time stood at 772 s.

Regarding `Cc1cc(C)c(CNC(=O)C2CCN(c3cnc4nccnc4c3)CC2)c(C)c1`, the RP-LC retention time was 793 s.

`O=C(C1CCCN(c2ccc3cc(S(=O)(=O)N4CCCC4)ccc3n2)C1)N1CCc2ccccc21` (stereo not given) came in with an RP-LC retention time of 884 s.

For the compound `COc1ccccc1N1CCN(C(=O)C2CCCN(c3nccc4sc(C)cc34)C2)CC1` (stereo not given), the RP-LC retention time amounted to 711 s.

The compound `COc1cccc(CNC(=O)Cn2cccc2-c2nnc(-c3ccccc3)o2)c1` yielded an RP-LC retention time of 895 s.

For the compound `COc1ccc(OC)c(NC(=O)c2cnn(-c3ccc(Cl)cc3)c2)c1`, the RP-LC retention time is 991 s.

For `CC(NC(=O)c1ccc(C#N)cc1)C(=O)N1CCCc2ccccc21` (stereo not given), the RP-LC retention time was determined as 818 s.

Compound `CCCC(=O)Nc1ccc(OCc2cc(C(=O)NC(C)CC)no2)cc1` (stereo not given) yielded an RP-LC retention time of 819 s.

The compound `Cc1cc(C)nc(N2CCN(c3ccc(Cl)cc3)CC2)n1` showed an RP-LC retention time of 1050 s.

Turning to `Cc1ccc(-c2cnn(CC(=O)Nc3ccc(Br)cc3)c(=O)n2)cc1`, the RP-LC retention time came out at 907 s.

`Cc1cc(NC(=O)N(C)CC2CCOCC2)ccc1Br`: the RP-LC retention time turned out to be 819 s.

Take `O=C(c1cccc(F)c1)N1CCC(C(=O)N2CCN(Cc3ccc4c(c3)OCO4)CC2)CC1`: the RP-LC retention time is 610 s.

`O=C(NC1CC1)c1ccc(OCC2CCN(C(=O)c3ccc(F)cc3Cl)CC2)cc1` gave an RP-LC retention time of 837 s.

Take `COc1c(C)cc(S(=O)(=O)NCCN2CCOCC2)c(C)c1C`: the RP-LC retention time was 568 s.

For the compound `Cc1nn(CC(=O)N2CCCCCC2)c(=O)c2nc(-c3ccccc3)sc12`, the RP-LC retention time is 872 s.

Compound `OC(CN1CCN(c2ccccn2)CC1)c1ccc2c(c1)OCO2` (stereo not given) yielded an RP-LC retention time of 539 s.

For `CCCN1C(=O)COc2ccc(-c3noc(-c4ccc(OCC)cc4)n3)cc21`, the RP-LC retention time was determined as 1320 s.

The compound `N#Cc1cccc(Cn2cc(S(=O)(=O)N3CCCCC3)ccc2=O)c1` registered an RP-LC retention time of 842 s.

The compound `CCn1nccc1-c1cccc(-c2noc(-c3c(F)cccc3F)n2)c1` registered an RP-LC retention time of 1270 s.

Turning to `CCc1ccccc1NC(=O)Cn1c(N)nc(C)cc1=O`, the RP-LC retention time came to 584 s.

Regarding `COc1cc(C2=NN(C(C)=O)C(c3ccncc3)O2)cc(OC)c1OC(C)=O` (stereo not given), the RP-LC retention time stood at 714 s.

On to `Cc1ccc(-n2c(=O)c3c(cc(C)n3C)n(CC(=O)N3CCc4ccccc43)c2=O)cc1`, for which the RP-LC retention time came out at 928 s.

Consider `COc1ccc2nc(NC(=O)C3CCN(C(=O)C4Sc5ccccc5NC4=O)CC3)sc2c1` (stereo not given), for which the RP-LC retention time was 775 s.

In turn, `O=C(C1CCN(c2cncnc2N2CCCCC2)CC1)N1CCOCC1` yielded an RP-LC retention time of 593 s.

As to `CCN(CC)C(=O)N1CC(n2cc(C(=O)N3CCOCC3)nn2)C1`, the RP-LC retention time is 612 s.

Consider `Cc1ccc(C)c(NC(=O)C2CCN(S(=O)(=O)c3ccc4c(c3)CCCC(=O)N4)CC2)c1`, for which the RP-LC retention time was 768 s.

`O=C(NC1CCCC1)c1c2c(nc3ccccc13)CCCC2`: the RP-LC retention time was determined as 625 s.

For the compound `CCOc1ccc(NC(=O)N2CCCC(Cn3cnc4cccnc43)C2)cc1` (stereo not given), the RP-LC retention time is 640 s.

In turn, `CCOC(=O)c1c(C(C)(C)C)oc2ccc(OCC#N)cc12` gave an RP-LC retention time of 1140 s.

`CCOc1ccc2c(n1)CCN(C(=O)NCC(C)C)C2`: the RP-LC retention time came to 740 s.

`O=C(Nc1ccc2c(c1)OCCO2)N1CCC(OCCOc2ccccc2)CC1` displayed an RP-LC retention time of 891 s.

`CN(C)S(=O)(=O)c1ccc2c(c1)N(CC(=O)Nc1cccc(F)c1)C(=O)C1CCCCN21` (stereo not given) yielded an RP-LC retention time of 928 s.

In turn, `CCNc1cc(N2CCC(CCC(=O)N3CCN(C(C)C)CC3)CC2)ncn1` displayed an RP-LC retention time of 524 s.

In the case of `Cn1ccc2cc(CCC(=O)N3CCN(c4ccc(F)cc4)CC3)ccc21`, the RP-LC retention time came out at 951 s.

Regarding `O=C(CCCOc1ccc(Cl)cc1Cl)Nc1nc(-c2ccc(Cl)cc2)cs1`, the RP-LC retention time came to 1300 s.

Turning to `CCOC(=O)CNC(=O)NCc1cccn1Cc1ccc(F)cc1`, the RP-LC retention time was determined as 772 s.

Consider `Cc1ccc(C)c(N2CCN(c3ncc(S(=O)(=O)c4ccc(Cl)cc4)c(N)n3)CC2)c1`, for which the RP-LC retention time is 1380 s.

`CCc1nc(OCC(=O)Nc2ccc(C)cc2Cl)c2ccccc2n1` returned an RP-LC retention time of 885 s.

On to `COc1ccc(C2C(C(=O)Nc3cc(OC)c(OC)c(OC)c3)c3ccccc3C(=O)N2C)cc1` (stereo not given), for which the RP-LC retention time came out at 815 s.

Compound `CSc1ccc(Cl)c(-c2nc(-c3cccc(-c4ccnn4C)c3)no2)c1` yielded an RP-LC retention time of 1300 s.

Compound `NC(=O)C1CCN(c2ncnc3c2oc2ccccc23)CC1` had an RP-LC retention time of 584 s.

Compound `CC(C)NC(=O)c1ccc(Nc2c(-c3ccccc3)nc3cnccn23)cc1` registered an RP-LC retention time of 702 s.

Regarding `COc1ccc(-c2nnc(COc3ccc(NC(=O)C4CCN(C(C)=O)CC4)cc3)o2)cc1`, the RP-LC retention time worked out at 703 s.

As for `Cn1nnc2ccc(-c3noc(Cc4cccc(F)c4)n3)cc21`, the RP-LC retention time is 921 s.

`COC(=O)c1c(C)[nH]c(C(=O)N2CCC(CC(=O)NCc3ccc(C)cc3)CC2)c1C` returned an RP-LC retention time of 762 s.

In the case of `O=C(Nc1ccc2c(c1)OCO2)C1CC(=O)N(c2n[nH]c3cccc(F)c23)C1` (stereo not given), the RP-LC retention time stood at 694 s.

Take `CCCn1c(CCNC(=O)c2ccc(C)c(C)c2)nc2cccnc21`: the RP-LC retention time is 705 s.

In turn, `O=C(CCc1nnc2ccc(NCc3ccccc3)nn12)N1CCN(c2ccccn2)CC1` displayed an RP-LC retention time of 588 s.

In turn, `CN1C(=O)CCS(=O)(=O)C1c1ccc(Cl)cc1` (stereo not given) displayed an RP-LC retention time of 759 s.

The compound `COc1cc(NC(C)=O)c2ncccc2c1Br` gave an RP-LC retention time of 960 s.

Compound `Cc1nn(-c2ccccc2)c(C)c1CCc1nnc2sc(-c3ccc(N(C)C)cc3)nn12` registered an RP-LC retention time of 1020 s.

Consider `COc1cccc(CC(=O)Nc2nnc(SCc3nnc(-c4ccccc4C)o3)s2)c1`, for which the RP-LC retention time was found to be 922 s.

Regarding `CCCS(=O)(=O)c1nc2ccc(NS(=O)(=O)c3ccccc3F)cc2s1`, the RP-LC retention time was determined as 882 s.

`Brc1ccc(C(c2nnc(-c3ccccc3)o2)N2CCN(c3ncccn3)CC2)cc1` (stereo not given): the RP-LC retention time turned out to be 1170 s.

The compound `COc1ncc(C(=O)N2CCc3ccccc3C2)cn1` came in with an RP-LC retention time of 729 s.

The compound `CNC(=O)CCc1nc2ccccc2n(CC(=O)NCCc2ccc(S(N)(=O)=O)cc2)c1=O` had an RP-LC retention time of 612 s.

For the compound `Cc1nc2nc(-c3ccccc3)nn2c(C)c1CC(=O)N(C)Cc1ccccc1`, the RP-LC retention time was found to be 842 s.

`CCOc1cccc(-c2noc(-c3nn(-c4ccc(C)c(C)c4)ccc3=O)n2)c1` gave an RP-LC retention time of 1060 s.

Regarding `Cc1noc(C)c1CC(=O)NCc1nnc2n1CCCC2`, the RP-LC retention time worked out at 559 s.
